Measured values: US10188634B2, “3-(3H-imidazo[4,5-C]pyridin-2-yl)-1 H-pyrazolo[4,3-B]pyridines and therapeutic uses thereof” (Samumed, LLC, priority 2015, dated 2019)

How the values were obtained:
[1] = tested on: primary human mesenchymal stem cells (hMSCs); assay: Induction of chondrogenesis in primary human mesenchymal stem cells (hMSCs), nodule imaging with Rhodamine B / Nile Red; format: cell-based; conditions: for Emax: hMSCs chondrogenesis, TGF-β3 (10 ng/mL) as positive control, read-out: Max. Activity as % TGF-β3 activity; for EC50: hMSCs, concentration required to induce 50% levels of chondrogenesis vs TGF-β3 positive control, read-out: Conc (nM) of 50% TGF-β3 activity
Experimental: Representative compounds were screened using primary human mesenchymal stem cells (hMSCs) to determine their ability to induce chondrogenesis (process by which cartilage is developed).
Human Mesenchymal Stem Cell Culture: Primary human mesenchymal stem cells (hMSCs) were purchased from Lonza (Walkersville, Md.) and expanded in Mesenchymal Stem Cell Growth Media (Lonza). Cells between passage 3 and 6 were used for the experiments.
Compound Screening: Each compound was dissolved in DMSO as a 10 mM stock and used to prepare compound source plates. For the 96 well assay, serial dilution (1:3, 6-point dose-response curves from 2700 nM to 10 nM) and compound transfer was performed using the ECHO 550 (Labcyte, Sunnyvale, Calif.) into 96-well clear bottom assay plates (Greiner Bio-One) with appropriate DMSO backfill for a final DMSO concentration of 0.03%. hMSCs were plated at 20,000 cells/well in 250 μL/well Incomplete Chondrogenic Induction Medium (Lonza; DMEM, dexamethasone, ascorbate, insulin-transferrin-selenium [ITS supplement], gentamycin-amphotericin [GA-1000], sodium pyruvate, proline and L-glutamine). TGF-β3 (10 ng/mL) was used as a positive control for differentiation while negative control wells were treated with 75 nL DMSO for normalization and calculating EC50 values. For the 384 well assay, serial dilution (1:3, 8-point dose-response curves from 5000 nM to 2.2 nM) and compound transfer was performed using the ECHO 550 (Labcyte, Sunnyvale, Calif.) into 384-well clear bottom assay plates (Greiner Bio-One) with appropriate DMSO backfill for a final DMSO concentration of 0.03%. hMSCs were plated at 8,000 cells/well in 80 μL/well Incomplete Chondrogenic Induction Medium (Lonza; DMEM, dexamethasone, ascorbate, insulin-transferrin-selenium [ITS supplement], gentamycin-amphotericin [GA-1000], sodium pyruvate, proline and L-glutamine). TGF-β3 (10 ng/mL) was used as a positive control for differentiation while negative control wells were treated with 25 nL DMSO for normalization and calculating EC50 values. Cells were incubated at 37° C. and 5% CO2 for 6 days. To image chondrogenic nodules, the cells were fixed using 4% formaldehyde (Electron Microscopy Sciences), and stained with 2 μg/mL Rhodamine B (Sigma-Aldrich) and 20 μM Nile Red (Sigma-Aldrich) [Johnson K., et.al, A Stem Cell-Based Approach to Cartilage Repair, Science, (2012), 336(6082). 717-721]. The nodules imaged (25 images per well for 96 well plates and 9 images per well for 384 well plates at 10× magnification) by excitation at 531 nm and emission at 625 nm and quantified using the CellInsight CX5 (Thermo Scientific). Area of nodules in each well was normalized to the average of 3 DMSO treated wells on the same plate using Excel (Microsoft Inc.). The normalized averages (fold change over DMSO) of 2 or 3 replicate wells for each compound concentration were calculated. Due to solubility limitations of some of the compounds, curve fitting was incomplete leading to inaccurate EC50 determinations.
Using TGF-β3 as a positive control, the concentration of representative compounds required to induce 50% levels of chondrogenesis is reported. In addition, the maximum activity of each compound and the respective dose that each compound reached maximum chondrogenesis activity is reported.

[2] = tested on: Wnt activity (Sp5-Luc reporter, human Sp5 promoter with eight TCF/LEF binding sites) in SW480 colon carcinoma cells; assay: Screening assay for Wnt activity: Sp5-Luc reporter gene assay in SW480 cells; format: cell-based; conditions: for inhibition at 10 µM: read-out: percent inhibition at 10 μM (given for EC50 of >10 μM); for EC50: 10-point dose-response starting from 10 μM, overnight incubation
Outline: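 SW480 cells stably carrying Sp5-Luc reporter (eight TCF/LEF sites) plated at 4,000/well in 1% FBS medium with compound (10-point 1:3 series from 10 μM, 0.1% DMSO) overnight at 37 °C. BrightGlo luminescence normalized to DMSO; EC50 by four-parameter fit, else % inhibition at 10 μM.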

EC50 [1] [nM]	EC50 [2] [µM]	Compound	Emax [1] [%]	inhibition at 10 µM [2] [%]
1670	> 10	CCC(=O)Nc1cncc(-c2ccc3[nH]nc(-c4nc5c(-c6cccc(F)c6)cncc5[nH]4)c3n2)c1 [Compound 1, N-(5-(3-(7-(3-Fluorophenyl)-3H-imidazo[4,5-c]pyridin-2-yl)-1H-pyrazolo[4,3-b]pyridin-5-yl)pyridin-3-yl)propionamide]	580	12.3
21	> 10	CC(C)CC(=O)Nc1cncc(-c2ccc3[nH]nc(-c4nc5c(-c6cccc(F)c6)cncc5[nH]4)c3n2)c1 [Compound 2, N-(5-(3-(7-(3-Fluorophenyl)-3H-imidazo[4,5-c]pyridin-2-yl)-1H-pyrazolo[4,3-b]pyridin-5-yl)pyridin-3-yl)-3-methylbutanamide]	53	43
7	> 10	Fc1cccc(-c2cncc3[nH]c(-c4n[nH]c5ccc(-c6ccncc6)nc45)nc23)c1 [Compound 18, 3-(7-(3-Fluorophenyl)-3H-imidazo[4,5-c]pyridin-2-yl)-5-(pyridin-4-yl)-1H-pyrazolo[4,3-b]pyridine]	51	14
–	> 10	O=C(Nc1cncc(-c2ccc3[nH]nc(-c4nc5c(-c6ccc(F)cc6)cncc5[nH]4)c3n2)c1)C1CCC1 [Compound 49, N-(5-(3-(7-(4-Fluorophenyl)-3H-imidazo[4,5-c]pyridin-2-yl)-1H-pyrazolo[4,3-b]pyridin-5-yl)pyridin-3-yl)cyclobutanecarboxamide]	33	44
100	> 10	Fc1ccc(-c2cncc3[nH]c(-c4n[nH]c5ccc(-c6cncnc6)nc45)nc23)cc1 [Compound 55, 3-(7-(4-Fluorophenyl)-3H-imidazo[4,5-c]pyridin-2-yl)-5-(pyrimidin-5-yl)-1H-pyrazolo[4,3-b]pyridine]	125	18
10	> 10	Nc1cncc(-c2ccc3[nH]nc(-c4nc5c(-c6ccccc6F)cncc5[nH]4)c3n2)c1 [Compound 59, 5-(3-(7-(2-Fluorophenyl)-3H-imidazo[4,5-c]pyridin-2-yl)-1H-pyrazolo[4,3-b]pyridin-5-yl)pyridin-3-amine]	98	7
–	> 10	CS(=O)(=O)NCc1cc(F)cc(-c2cncc3[nH]c(-c4n[nH]c5ccc(-c6cncc(NC(=O)CC7CCNCC7)c6)nc45)nc23)c1 [Compound 725, N-(5-(3-(7-(3-Fluoro-5-(methylsulfonamidomethyl)phenyl)-3H-imidazo[4,5-c]pyridin-2-yl)-1H-pyrazolo[4,3-b]pyridin-5-yl)pyridin-3-yl)-2-(piperidin-4-yl)acetamide]	–	11.2
–	> 10	CN(C)CCNc1cc(F)cc(-c2cncc3[nH]c(-c4n[nH]c5ccc(-c6cncc(OCCN7CCCC7)c6)nc45)nc23)c1 [Compound 742, N^1-(3-Fluoro-5-(2-(5-(5-(2-(pyrrolidin-1-yl)ethoxy)pyridin-3-yl)-1H-pyrazolo[4,3-b]pyridin-3-yl)-3H-imidazo[4,5-c]pyridin-7-yl)phenyl)-N^2,N^2-dimethylethane-1,2-diamine]	–	17.1
–	> 10	COc1cccc(-c2cncc3[nH]c(-c4n[nH]c5ccc(-c6cncc(NC(=O)Cc7ccccc7)c6)nc45)nc23)c1 [Compound 955, N-(5-(3-(7-(3-methoxylphenyl)-3H-imidazo[4,5-c]pyridin-2-yl)-1H-pyrazolo[4,3-b]pyridin-5-yl)pyridin-3-yl)-2-phenylacetamide]	–	21.5
–	> 10	COc1cccc(-c2cncc3[nH]c(-c4n[nH]c5ccc(-c6cncc(NC(=O)CC(C)(C)C)c6)nc45)nc23)c1 [Compound 961, N-(5-(3-(7-(3-methoxylphenyl)-3H-imidazo[4,5-c]pyridin-2-yl)-1H-pyrazolo[4,3-b]pyridin-5-yl)pyridin-3-yl)-3,3-dimethylbutanamide]	–	0
–	> 10	COc1cccc(-c2cncc3[nH]c(-c4n[nH]c5ccc(-c6cn[nH]c6)nc45)nc23)c1 [Compound 975, 3-(7-(3-Methoxylphenyl)-3H-imidazo[4,5-c]pyridin-2-yl)-5-(1H-pyrazol-4-yl)-1H-pyrazolo[4,3-b]pyridine]	–	2
–	> 10	COc1cccc(-c2cncc3[nH]c(-c4n[nH]c5ccc(-c6cncc(OC7CCNCC7)c6)nc45)nc23)c1 [Compound 980, 3-(7-(3-Methoxylphenyl)-3H-imidazo[4,5-c]pyridin-2-yl)-5-(5-(piperidin-4-yloxy)pyridin-3-yl)-1H-pyrazolo[4,3-b]pyridine]	–	25.8
–	> 10	COc1cccc(-c2cncc3[nH]c(-c4n[nH]c5ccc(-c6cncc(O)c6)nc45)nc23)c1 [Compound 985, 5-(3-(7-(3-Methoxylphenyl)-3H-imidazo[4,5-c]pyridin-2-yl)-1H-pyrazolo[4,3-b]pyridin-5-yl)pyridin-3-ol]	–	7.8
–	> 10	NC1CN(c2cncc(-c3ccc4[nH]nc(-c5nc6c(-c7ccc(Cl)s7)cncc6[nH]5)c4n3)n2)C1 [Compound 1023, 1-(6-(3-(7-(5-Chlorothiophen-2-yl)-3H-imidazo[4,5-c]pyridin-2-yl)-1H-pyrazolo[4,3-b]pyridin-5-yl)pyrazin-2-yl)azetidin-3-amine]	–	24.3
–	> 10	c1cc2c(cc1-c1cncc3[nH]c(-c4n[nH]c5ccc(C6CCNCC6)nc45)nc13)OCO2 [Compound 1063, 3-(7-(Benzo[d][1,3]dioxol-5-yl)-3H-imidazo[4,5-c]pyridin-2-yl)-5-(piperidin-4-yl)-1H-pyrazolo[4,3-b]pyridine]	–	10.5
–	> 10	Cn1cc(-c2ccc3[nH]nc(-c4nc5c(-c6ccc(F)cc6)cncc5[nH]4)c3n2)c(CO)n1 [Compound 1084, (4-(3-(7-(4-Fluorophenyl)-3H-imidazo[4,5-c]pyridin-2-yl)-1H-pyrazolo[4,3-b]pyridin-5-yl)-1-methyl-1H-pyrazol-3-yl)methanol]	–	11.8
–	> 10	Cn1cc(-c2ccc3[nH]nc(-c4nc5c(N6CCCCC6)cncc5[nH]4)c3n2)c(CO)n1 [Compound 1089, (1-Methyl-4-(3-(7-(piperidin-1-yl)-3H-imidazo[4,5-c]pyridin-2-yl)-1H-pyrazolo[4,3-b]pyridin-5-yl)-1H-pyrazol-3-yl)methanol]	–	24.2
–	> 10	Cn1cc(-c2ccc3[nH]nc(-c4nc5c(-c6ccc7c(c6)OCO7)cncc5[nH]4)c3n2)c(CO)n1 [Compound 1106, (4-(3-(7-(Benzo[d][1,3]dioxol-5-yl)-3H-imidazo[4,5-c]pyridin-2-yl)-1H-pyrazolo[4,3-b]pyridin-5-yl)-1-methyl-1H-pyrazol-3-yl)methanol]	–	24.7

Compound	EC50 [1] [nM]	EC50 [2] [µM]	Emax [1] [%]	inhibition at 10 µM [2] [%]
C1=C(c2ccc3[nH]nc(-c4nc5c(-c6ccc7c(c6)OCO7)cncc5[nH]4)c3n2)CCNC1 [Compound 1064, 3-(7-(Benzo[d][1,3]dioxol-5-yl)-3H-imidazo[4,5-c]pyridin-2-yl)-5-(1,2,3,6-tetrahydropyridin-4-yl)-1H-pyrazolo[4,3-b]pyridine]	–	> 10	–	9.5
